The target of one experiment is SUV39H2 (Homo sapiens (Human), UniProt Q9H5I1). The experiment can be described thus: biochemical. Type of experiment: biochemical. The following applies: 3H-SAM 100 nM, H3 Histone Peptide 350 nM, room temperature 3 hours. Put shortly: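 Human SUV39H2, at a lot-specific concentration set by specific activity, was incubated with test compounds for 3 h at room temperature, then stopped with streptavidin SPA beads (50 μg/well final).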

Another experiment relates to A549. The experiment can be described thus: Cell-based assay, anti-proliferative activity (Cell Counting Kit-8, 72 hours). The conditions noted are these: Homo sapiens, read-out: A549 IC50. Put shortly: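 IC50 values come from growth read-outs taken after the cells' exposure to each candidate inhibitor. Cells had been plated in 96-well microtiter plates beforehand.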
In general terms: Tetrazolium assays rely on reduction of a dye to a coloured formazan, in cell work by metabolically active cells.

Where [1] appears, read: A549 cells, 72 hours exposure, Cell Counting Kit-8.

These results are taken from US10508109B2 (priority 2015, dated 2019).

Structures can show the parent of a compound that is named as a salt. Where two headings read alike, the source gives them in different places.

SUV39H2, sequence (Q9H5I1 whole entry): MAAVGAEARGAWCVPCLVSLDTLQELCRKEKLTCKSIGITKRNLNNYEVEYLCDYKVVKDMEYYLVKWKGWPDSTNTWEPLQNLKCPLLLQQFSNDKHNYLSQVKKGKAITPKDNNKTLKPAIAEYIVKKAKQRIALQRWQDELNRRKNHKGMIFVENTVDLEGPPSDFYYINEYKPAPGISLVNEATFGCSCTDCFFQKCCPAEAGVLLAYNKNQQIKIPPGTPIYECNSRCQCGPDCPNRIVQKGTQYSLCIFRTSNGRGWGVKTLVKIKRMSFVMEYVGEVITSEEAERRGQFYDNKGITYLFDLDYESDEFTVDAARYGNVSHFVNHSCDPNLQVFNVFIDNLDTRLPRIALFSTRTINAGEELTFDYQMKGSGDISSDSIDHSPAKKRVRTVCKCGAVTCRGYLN

By IC50 is commonly meant the concentration at which inhibition is half-maximal. Regarding `COc1cc(OC)c(-c2cn3ccc(N4CCN(c5ccnc(N6CCNC(C)C6)n5)CC4)cc3n2)cc1Cl` (stereo not shown) [Example 362, 2-(5-chloro-2,4-dimethoxyphenyl)-7-(4-(2-(3-methylpiperazin-1-yl)pyrimidin-4-yl)piperazin-1-yl)imidazo[1,2-a]pyridine], the IC50 was 15.5 nM at SUV39H2 and 680 nM in the experiment with A549 (setting [1]).

For the compound `COc1cc(OC)c(-c2cn3ccc(N4CCN(c5nccc(N6CCOCC6)n5)CC4)cc3n2)cc1Cl` [Example 363, 4-(2-(4-(2-(5-chloro-2,4-dimethoxyphenyl)imidazo[1,2-a]pyridin-7-yl)piperazin-1-yl)pyrimidin-4-yl)morpholine], the IC50 amounted to 26.5 nM against SUV39H2 and 490 nM in the experiment on A549 (setting [1]).

On to `CNc1ccnc(N2CCN(c3ccn4cc(-c5cc(Cl)c(OC)cc5OC)nc4c3)CC2)n1` [Example 364, 2-(4-(2-(5-chloro-2,4-dimethoxyphenyl)imidazo[1,2-a]pyridin-7-yl)piperazin-1-yl)-N-methylpyrimidin-4-amine], for which the IC50 at SUV39H2 worked out at 40.7 nM; in the experiment with A549 (A549, 72 h), 550 nM.

As to `COc1cc(OC)c(-c2cn3ccc(N4CCN(c5nccc(N)c5F)CC4)cc3n2)cc1Cl` [Example 365, 2-(4-(2-(5-chloro-2,4-dimethoxyphenyl)imidazo[1,2-a]pyridin-7-yl)piperazin-1-yl)-3-fluoropyridin-4-amine formate], the IC50 against SUV39H2 worked out at 29.7 nM; in the experiment on A549 (A549, 72 h), 630 nM.

Take `COc1cc(OC)c(-c2cn3ccc(N4CCN(c5nccc(N6CCC(=O)CC6)n5)CC4)cc3n2)cc1Cl` [Example 366, 1-(2-(4-(2-(5-chloro-2,4-dimethoxyphenyl)imidazo[1,2-a]pyridin-7-yl)piperazin-1-yl)pyrimidin-4-yl)piperidin-4-one]: the IC50 amounted to 62.9 nM on SUV39H2 and 860 nM in the experiment on A549 (setting [1]).

Consider `COc1cc(OC)c(-c2cn3ccc(N4CCN(c5ccnc(N6CCC(CO)C6)n5)CC4)cc3n2)cc1Cl` (stereo not shown) [Example 367, (1-(4-(4-(2-(5-chloro-2,4-dimethoxyphenyl)imidazo[1,2-a]pyridine-7-yl)piperazin-1-yl)pyrimidin-2-yl)pyrrolidin-3-yl)methanol], for which the IC50 on SUV39H2 stood at 26.2 nM; in the experiment on A549 (setting [1]) it was 980 nM.

As to `COc1cc(OC)c(-c2cn3ccc(N4CCCN(c5ncccn5)CC4)cc3n2)cc1Cl` [Example 368, 2-(5-chloro-2,4-dimethoxyphenyl)-7-(4-(pyrimidin-2-yl)-1,4-diazepan-1-yl)imidazo[1,2-a]pyridine], the IC50 amounted to 15.7 nM on SUV39H2 and 990 nM in the experiment on A549 (setting [1]).

Regarding `COc1cc(OC)c(-c2cn3ccc(N4CCN(c5cnc(N6CCN(S(=O)(=O)C7CC7)CC6)nc5)CC4)cc3n2)cc1Cl` [Example 369, 2-(5-chloro-2,4-dimethoxyphenyl)-7-(4-(2-(4-(cyclopropylsulfonyl)piperazin-1-yl)pyrimidin-5-yl)piperazin-1-yl)imidazo[1,2-a]pyridine 2,2,2-trifluoroacetate], the figures for the IC50 on SUV39H2 and with A549 (setting [1]) were 57.2 nM and 630 nM, respectively.

With `COc1cc(OC)c(-c2cn3ccc(N4CCN(c5nccc(N6CCN(C)CC6)n5)CC4)cc3n2)cc1Cl` [Example 370, 2-(5-chloro-2,4-dimethoxyphenyl)-7-(4-(4-(4-methylpiperazin-1-yl)pyrimidin-2-yl)piperazin-1-yl)imidazo[1,2-a]pyridine], the IC50 was 12 nM at SUV39H2 and 730 nM in the experiment on A549 (A549, 72 h).

`COc1cc(OC)c(-c2cn3ccc(N[C@H]4CC[C@@H](NCc5cccc(C#N)c5)CC4)cc3n2)cc1Cl` [Example 371, 3-(((cis-4-((2-(5-chloro-2,4-dimethoxyphenyl)imidazo[1,2-a]pyridin-7-yl)amino)cyclohexyl)amino)methyl)benzonitrile]: the IC50 against SUV39H2 is 16.1 nM; in the experiment on A549 (setting [1]), 690 nM.

As for `CNC1CCN(c2nccc(N3CCN(c4ccn5cc(-c6cc(Cl)c(OC)cc6OC)nc5c4)CC3)n2)C1` (stereo not shown) [Example 372, 1-(4-(4-(2-(5-chloro-2,4-dimethoxyphenyl)imidazo[1,2-a]pyridine-7-yl)piperazin-1-yl)pyrimidin-2-yl)-N-methylpyrrolidin-3-amine trihydrochloride], the IC50 at SUV39H2 came to 18.3 nM; in the experiment with A549 (A549, 72 h), 700 nM.

As for `COc1cc(OC)c(-c2cn3ccc(N4CCN(c5nccc(N6CCN(C(C)=O)CC6)n5)CC4)cc3n2)cc1Cl` [Example 373, 1-(4-(2-(4-(2-(5-chloro-2,4-dimethoxyphenyl)imidazo[1,2-a]pyridin-7-yl)piperazin-1-yl)pyrimidin-4-yl)piperazin-1-yl)ethanone 2,2,2-trifluoroacetate], the IC50 turned out to be 13.6 nM against SUV39H2 and 640 nM with A549 (setting [1]).

For `COc1cc(OC)c(-c2cn3ccc(N4CCC(Nc5ccncn5)CC4)cc3n2)cc1Cl` [Example 374, N-(1-(2-(5-chloro-2,4-dimethoxyphenyl)imidazo[1,2-a]pyridin-7-yl)piperidin-4-yl)pyrimidin-4-amine], the IC50 stood at 31.4 nM against SUV39H2 and 660 nM in the experiment on A549 (setting [1]).

As to `COc1cc(OC)c(-c2cn3ccc(N4CCN(c5cc(N6CCNCC6)ncn5)CC4)cc3n2)cc1Cl` [Example 375, 2-(5-chloro-2,4-dimethoxyphenyl)-7-(4-(6-(piperazin-1-yl)pyrimidin-4-yl)piperazin-1-yl)imidazo[1,2-a]pyridine], the IC50 against SUV39H2 was found to be 23.1 nM; in the experiment on A549 (setting [1]), 690 nM.

Turning to `COc1cc(OC)c(-c2cn3ccc(N4CCN(c5nccc(N6CCCC(O)C6)n5)CC4)cc3n2)cc1Cl` (stereo not shown) [Example 376, 1-(2-(4-(2-(5-chloro-2,4-dimethoxyphenyl)imidazo[1,2-a]pyridin-7-yl)piperazin-1-yl)pyrimidin-4-yl)piperidin-3-ol], the IC50 stood at 66.5 nM against SUV39H2 and 980 nM in the experiment on A549 (setting [1]).

On to `COc1cc(OC)c(-c2cn3ccc(N4CCN(c5cc(N6CCN(C)CC6)ncn5)CC4)cc3n2)cc1Cl` [Example 377, 2-(5-chloro-2,4-dimethoxyphenyl)-7-(4-(6-(4-methylpiperazin-1-yl)pyrimidin-4-yl)piperazin-1-yl)imidazo[1,2-a]pyridine dihydrochloride], for which the IC50 against SUV39H2 was 14.4 nM; in the experiment with A549 (A549, 72 h) it was 660 nM.

In the case of `COc1cc(OC)c(-c2cn3ccc(N4CCN(c5cnc(N6CCC(N)C6)nc5)CC4)cc3n2)cc1Cl` (stereo not shown) [Example 378, 1-(5-(4-(2-(5-chloro-2,4-dimethoxyphenyl)imidazo[1,2-a]pyridin-7-yl)piperazin-1-yl)pyrimidin-2-yl)pyrrolidin-3-amine dihydrochloride], the IC50 at SUV39H2 is 22.8 nM; in the experiment with A549 (A549, 72 h) it was 680 nM.

`COc1cc(OC)c(-c2cn3ccc(N4CCN(c5nc(N)nc(N6CCOCC6)n5)CC4)cc3n2)cc1Cl` [Example 379, 4-(4-(2-(5-chloro-2,4-dimethoxyphenyl)imidazo[1,2-a]pyridin-7-yl)piperazin-1-yl)-6-morpholino-1,3,5-triazin-2-amine]: the IC50 against SUV39H2 was found to be 26.9 nM; in the experiment on A549 (setting [1]) it was 420 nM.

As for `COc1ccc(CN[C@H]2CC[C@@H](Nc3ccn4cc(-c5cc(Cl)c(OC)cc5OC)nc4c3)CC2)cc1` [Example 380, cis-N^1-(2-(5-chloro-2,4-dimethoxyphenyl)imidazo[1,2-a]pyridin-7-yl)-N^4-(4-methoxybenzyl)cyclohexane-1,4-diamine bis(2,2,2-trifluoroacetate)], the IC50 against SUV39H2 was determined as 33.3 nM; in the experiment with A549 (setting [1]), 600 nM.

For the compound `COc1cc(OC)c(-c2cn3ccc(N4CCN(c5cccc(N6CCN(C)CC6)n5)CC4)cc3n2)cc1Cl` [Example 381, 2-(5-chloro-2,4-dimethoxyphenyl)-7-(4-(6-(4-methylpiperazin-1-yl)pyridin-2-yl)piperazin-1-yl)imidazo[1,2-a]pyridine], the IC50 against SUV39H2 is 43.1 nM; in the experiment with A549 (setting [1]) it was 770 nM.

Consider `COc1cc(OC)c(-c2cn3ccc(N4CCN(c5nccc(N6CCN(C(=O)Cc7ccccc7)CC6)n5)CC4)cc3n2)cc1Cl` [Example 382, 1-(4-(2-(4-(2-(5-chloro-2,4-dimethoxyphenyl)imidazo[1,2-a]pyridin-7-yl)piperazin-1-yl)pyrimidin-4-yl)piperazin-1-yl)-2-phenylethanone dihydrochloride], for which the IC50 against SUV39H2 was found to be 31.7 nM; in the experiment on A549 (A549, 72 h), 680 nM.

Consider `COc1cc(OC)c(-c2cn3ccc(N4CCCN(c5cncnc5)CC4)cc3n2)cc1Cl` [Example 383, 2-(5-chloro-2,4-dimethoxyphenyl)-7-(4-(pyrimidin-5-yl)-1,4-diazepan-1-yl)imidazo[1,2-a]pyridine], for which the IC50 against SUV39H2 came out at 13.8 nM; with A549 (setting [1]), 880 nM.

As for `COc1cc(OC)c(-c2cn3ccc(N4CCN(c5cc(N6CCOCC6)nc(N)n5)CC4)cc3n2)cc1Cl` [Example 384, 4-(4-(2-(5-chloro-2,4-dimethoxyphenyl)imidazo[1,2-a]pyridin-7-yl)piperazin-1-yl)-6-morpholinopyrimidin-2-amine], the IC50 at SUV39H2 turned out to be 10.9 nM; in the experiment on A549 (setting [1]), 940 nM.

For `COc1cc(OC)c(-c2cn3ccc(N4CCN(c5cc(N6CCCC6)nc(N)n5)CC4)cc3n2)cc1Cl` [Example 385, 4-(4-(2-(5-chloro-2,4-dimethoxyphenyl)imidazo[1,2-a]pyridin-7-yl)piperazin-1-yl)-6-(pyrrolidin-1-yl)pyrimidin-2-amine], the IC50 at SUV39H2 came to 38 nM; in the experiment with A549 (setting [1]), 660 nM.

Regarding `COc1cc(OC)c(-c2cn3ccc(N4CC[C@H](NCc5ccc(NC(=O)OC(C)(C)C)cc5)C4)cc3n2)cc1Cl` [Example 386, (S)-tert-butyl (4-(((1-(2-(5-chloro-2,4-dimethoxyphenyl)imidazo[1,2-a]pyridin-7-yl)pyrrolidin-3-yl)amino)methyl)phenyl)carbamate], the IC50 turned out to be 24.8 nM against SUV39H2 and 730 nM with A549 (setting [1]).

For `COc1cc(OC)c(-c2cn3cnc(N4CC[C@H](NC(=O)OC(C)(C)C)C4)cc3n2)cc1Cl` [Example 387, (S)-tert-butyl (1-(2-(5-chloro-2,4-dimethoxyphenyl)imidazo[1,2-c]pyrimidin-7-yl)pyrrolidin-3-yl)carbamate], the results for the IC50 against SUV39H2 and with A549 (setting [1]) were 33.2 nM and 1600 nM, respectively.
